# Active and inactive are the calls of the source.
# Legend:
# Escherichia coli [1] = assay: microbe, parasite or virus in culture
# Escherichia coli [2] = assay: microbe, parasite or virus in culture; remark: listed apart in the source
# CAAX prenyl protease 2 [3] = target: CAAX prenyl protease 2 (Saccharomyces cerevisiae S288c, UniProt Q03530); type: biochemical
# Trypsin = Trypsin (Sus scrofa, UniProt P00761); assay: porcine trypsin inhibitors, dose response, selectivity assay for Rce1 protease inhibitor project, biochemical, quenched peptide fluorescence, cherry-pick (AID 488789)
# CAAX prenyl protease 2 [4] = target: CAAX prenyl protease 2 (Homo sapiens, UniProt Q9Y256); assay: human Rce1 protease inhibitors, dose response, biochemical, yeast membranes, quenched-peptide fluorescence, cherry-pick (AID 588849)
# Estrogen receptor = target: T1, Estrogen receptor (Homo sapiens, UniProt P03372);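 further: potency for inhibiting coactivator peptide recruitment to the receptor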
# T1 sequence (P03372 whole entry): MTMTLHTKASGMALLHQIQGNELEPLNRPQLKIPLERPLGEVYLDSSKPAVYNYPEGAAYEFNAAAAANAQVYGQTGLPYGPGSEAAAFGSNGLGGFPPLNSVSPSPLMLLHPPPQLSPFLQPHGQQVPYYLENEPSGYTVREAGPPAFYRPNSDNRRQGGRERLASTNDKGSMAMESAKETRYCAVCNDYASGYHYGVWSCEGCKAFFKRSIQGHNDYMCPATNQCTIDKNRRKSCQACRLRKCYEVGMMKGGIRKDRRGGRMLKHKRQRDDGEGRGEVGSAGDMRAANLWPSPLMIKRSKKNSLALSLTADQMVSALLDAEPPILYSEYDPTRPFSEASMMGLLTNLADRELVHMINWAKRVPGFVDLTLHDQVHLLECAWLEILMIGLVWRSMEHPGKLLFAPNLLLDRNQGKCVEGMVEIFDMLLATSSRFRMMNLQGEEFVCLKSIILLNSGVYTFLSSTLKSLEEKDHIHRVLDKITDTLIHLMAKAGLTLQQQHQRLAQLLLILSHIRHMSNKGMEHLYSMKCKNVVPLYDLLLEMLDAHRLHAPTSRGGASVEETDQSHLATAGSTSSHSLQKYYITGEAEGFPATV
# Vero = Vero cell cytotoxicity, cytotoxicity control for flavivirus capping enzyme inhibitors (AID 588742); type: functional; settings: Chlorocebus sabaeus
# Genome polyprotein = Genome polyprotein (dengue virus type 2, UniProt P29990); assay: Dengue-2 NS5 methyltransferase inhibitors, primary screen, biochemical, confirmation dose response (AID 588689); type: functional
# [5] = THP-1 cell cytotoxicity, dose response, cytotoxicity control for Vif-APOBEC3G degradation inhibitor project, THP-1 cells (AID 1117359); type: functional; settings: Human immunodeficiency virus 1, THP-1
# HEK293 [6] = assay: cells; settings: Homo sapiens
# HEK293 [7] = assay: cells; settings: Homo sapiens; remark: listed apart in the source
# [8] = target: Beta-2 adrenergic receptor (Homo sapiens, UniProt P07550); assay: beta2AR agonists driving receptor internalization, dose response, cell-based, FAP fluorogen, flow cytometry, cherry pick 1 (AID 588763); type: functional
# Cytochrome P450 2C19 = Cytochrome P450 2C19 (Homo sapiens, UniProt P33261); assay: Cytochrome panel assay with activity outcomes. Panel member name: p450-cyp2c19 Compounds with AC50 equal or less than 10 uM are considered active; type: functional; settings: read-out: AC50
# Cytochrome P450 3A4 = Cytochrome P450 3A4 (Homo sapiens, UniProt P08684);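 further: CYP3A4 tested as one member of a cytochrome P450 panel screen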
# Cytochrome P450 2C9 = Cytochrome P450 2C9 (Homo sapiens, UniProt P11712)
# [9] = target: Cell division cycle 7-related protein kinase (Homo sapiens, UniProt O00311); type: functional;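 further: value obtained from a kinome-wide kinase panel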
# [10] = target: Cyclin-dependent kinase 19 (Homo sapiens, UniProt Q9BWU1); assay: Navigating the Kinome. Panel member name: CDC2L6; type: functional
# [11] = target: Vascular endothelial growth factor receptor 2 (Homo sapiens, UniProt P35968); type: functional
# Aurora kinase A = target: T2, Aurora kinase A (Homo sapiens, UniProt O14965); type: functional;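 further: value from the Navigating the Kinome kinase panel profiling, panel entry STK6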
# T2 sequence (O14965 whole entry): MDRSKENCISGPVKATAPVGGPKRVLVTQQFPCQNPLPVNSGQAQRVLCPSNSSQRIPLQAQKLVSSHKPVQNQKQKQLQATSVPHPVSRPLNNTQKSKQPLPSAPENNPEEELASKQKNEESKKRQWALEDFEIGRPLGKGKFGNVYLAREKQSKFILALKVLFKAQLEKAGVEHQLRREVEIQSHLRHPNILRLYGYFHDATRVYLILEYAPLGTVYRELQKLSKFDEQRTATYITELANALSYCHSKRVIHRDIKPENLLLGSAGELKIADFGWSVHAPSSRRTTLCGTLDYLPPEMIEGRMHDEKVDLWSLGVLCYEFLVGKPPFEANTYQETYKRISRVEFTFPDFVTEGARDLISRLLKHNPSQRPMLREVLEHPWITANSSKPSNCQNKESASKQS
# Aurora kinase B = Aurora kinase B (Homo sapiens, UniProt Q96GD4); type: functional
# [12] = target: Inhibitor of nuclear factor kappa-B kinase subunit epsilon (Homo sapiens, UniProt Q14164); assay: Navigating the Kinome. Panel member name: IKBKE; type: functional
# Activin receptor type-1 = Activin receptor type-1 (Homo sapiens, UniProt Q04771); assay: Navigating the Kinome. Panel member name: ACVR1; type: functional
# [13] = target: Cyclin-dependent kinase 8 (Homo sapiens, UniProt P49336); assay: Navigating the Kinome. Panel member name: CDK8; type: functional
# [14] = C. albicans growth with fluconazole, confirmation, fluorescence, retest (AID 2467); type: functional, cell-based
# [15] = inhibitors of intracellular T. cruzi replication, confirmation, NIH3T3 host cells, beta-gal luminescence (AID 2044); type: functional, cell-based;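 further: intracellular parasites grown in NIH/3T3 mouse fibroblasts as host cells; luminescent beta-galactosidase reporter signal from transgenic T. cruzi replicating inside host cells; inhibitors lower the luminescence signal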
# [16] = target: ATP-dependent molecular chaperone HSP82 (Candida albicans (strain WO-1) (Yeast), UniProt C4YTQ8); assay: loss of DOC-induced GRE-beta-galactosidase reporter signal, dose response, Hsp90 inhibitor project, S. cerevisiae, luminescence (AID 2400); type: functional, cell-based;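 further: beta-galactosidase luminescence from glucocorticoid response element reporter as proxy for Hsp90 function; inhibitor potency where signal loss means Hsp90 inhibition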
# [17] = Counterscreen for activators of the function of SWI/SNF related, matrix associated, actin dependent regulator of chromatin, subfamily a, member 2 (SMARCA2, BRM): Luminescence-based cell-based high throughput dose response assay to identify non-selective compounds using the VP16 reporter assay.; type: functional
# [18] = target: SWI/SNF-related matrix-associated actin-dependent regulator of chromatin subfamily A member 2 (Homo sapiens, UniProt P51531); assay: Luminescence-based cell-based high throughput dose response assay to identify activators of the function of SWI/SNF related, matrix associated, actin dependent regulator of chromatin, subfamily a, member 2 (SMARCA2, BRM).; type: functional
# [19] = cytotoxicity toward NIH3T3 fibroblasts, dose response, counter-screen, cell-based, ATP luminescence, mouse fibroblasts (AID 2010); type: functional;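 further: cells exposed to compound for about 90 hours before reading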
# A-375 = assay: A375 melanoma cell viability reduction, dose response, counter-screen for MITF modulator project, cherry-pick samples, set 2 (AID 540335); type: functional, cell-based; settings: Homo sapiens
# [20] = target: T3, DNA repair protein RAD52 homolog (Homo sapiens, UniProt P43351); type: functional, biochemical
# T3 sequence (P43351 whole entry): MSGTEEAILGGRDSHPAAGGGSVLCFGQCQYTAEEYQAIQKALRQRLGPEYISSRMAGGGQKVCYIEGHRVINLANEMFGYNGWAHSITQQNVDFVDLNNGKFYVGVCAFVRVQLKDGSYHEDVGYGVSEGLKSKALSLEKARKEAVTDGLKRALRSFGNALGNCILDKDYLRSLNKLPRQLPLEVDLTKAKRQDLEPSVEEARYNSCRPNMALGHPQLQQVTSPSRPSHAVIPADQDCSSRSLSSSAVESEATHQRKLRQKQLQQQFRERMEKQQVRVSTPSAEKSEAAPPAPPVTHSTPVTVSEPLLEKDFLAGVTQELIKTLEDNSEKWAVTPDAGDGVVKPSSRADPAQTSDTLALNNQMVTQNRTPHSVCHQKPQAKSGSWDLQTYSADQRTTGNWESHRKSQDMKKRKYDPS
# INS1 = assay: beta cell apoptosis inhibitors, cytokine rescue, dose response, luminescence, retest (AID 449756); type: functional, cell-based; settings: Rattus norvegicus;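 further: cell death triggered by IL-1 beta plus TNF-alpha plus IFN-gamma mixture; protective hits raise ATP signal compared with cytokine alone wells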
# [21] = target: T4, Microphthalmia-associated transcription factor (Homo sapiens, UniProt O75030); assay: TRPM1 promoter luciferase signal decrease, dose response, MITF inhibitor project, cell-based, SK-MEL-5, cherry-picked, set 3 (AID 493073); type: functional
# T4 sequence (O75030 whole entry): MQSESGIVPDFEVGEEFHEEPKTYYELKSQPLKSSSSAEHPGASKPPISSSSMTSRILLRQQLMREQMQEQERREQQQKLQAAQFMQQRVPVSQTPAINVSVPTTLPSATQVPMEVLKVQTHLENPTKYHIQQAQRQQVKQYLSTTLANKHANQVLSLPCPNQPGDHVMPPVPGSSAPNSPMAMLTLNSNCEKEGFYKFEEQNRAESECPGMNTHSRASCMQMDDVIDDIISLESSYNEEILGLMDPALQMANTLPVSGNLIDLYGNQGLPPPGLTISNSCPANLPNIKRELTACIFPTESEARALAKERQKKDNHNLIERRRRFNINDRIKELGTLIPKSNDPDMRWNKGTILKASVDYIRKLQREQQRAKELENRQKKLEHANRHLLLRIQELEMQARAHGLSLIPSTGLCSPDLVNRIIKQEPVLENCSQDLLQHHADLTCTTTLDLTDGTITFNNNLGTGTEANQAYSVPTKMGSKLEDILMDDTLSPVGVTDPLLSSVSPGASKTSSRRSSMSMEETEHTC
# [22] = target: T5, Serine/threonine-protein phosphatase (Candida dubliniensis (strain CD36 / CBS 7987 / NCPF 3949 / NRRLY-17841) (Yeast), UniProt B9W6M3); assay: calcineurin pathway inhibitors in yeast reporter, dose response, S. cerevisiae, CDRE-lacZ, luminescence, secondary (AID 2388); type: functional, cell-based;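 further: yeast reporter cells carrying a calcineurin-responsive lacZ construct stimulated with calcium chloride; luminescent beta-galactosidase reporter signal in whole cells rather than isolated phosphatase activity; potency for inhibition where a drop in reporter signal means calcineurin blockade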
# T5 sequence (B9W6M3 whole entry): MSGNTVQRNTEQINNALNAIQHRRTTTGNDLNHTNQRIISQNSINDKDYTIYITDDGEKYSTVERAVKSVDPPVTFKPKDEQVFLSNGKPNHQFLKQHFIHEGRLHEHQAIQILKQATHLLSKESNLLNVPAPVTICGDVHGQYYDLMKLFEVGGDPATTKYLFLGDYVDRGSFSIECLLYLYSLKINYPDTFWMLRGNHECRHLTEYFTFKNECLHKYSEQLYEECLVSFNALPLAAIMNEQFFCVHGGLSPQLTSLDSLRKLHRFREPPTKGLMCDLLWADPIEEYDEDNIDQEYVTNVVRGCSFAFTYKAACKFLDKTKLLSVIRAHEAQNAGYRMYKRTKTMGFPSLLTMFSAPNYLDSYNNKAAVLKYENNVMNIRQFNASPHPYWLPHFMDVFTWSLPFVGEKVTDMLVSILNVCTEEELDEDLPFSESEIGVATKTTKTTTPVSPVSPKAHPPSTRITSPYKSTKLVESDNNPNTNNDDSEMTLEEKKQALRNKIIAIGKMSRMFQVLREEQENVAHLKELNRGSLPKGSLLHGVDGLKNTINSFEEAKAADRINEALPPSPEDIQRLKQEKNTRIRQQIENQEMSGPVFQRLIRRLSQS
# [23] = NIH-3T3 fibroblast cytotoxicity, dose response, cytotoxicity control, cell-based, fluorescence, Alamar Blue, secondary assay (AID 2327); type: functional;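 further: NIH-3T3 mouse fibroblasts cultured with fluconazole at 8 µg/mL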
# [24] = target: Dual specificity protein kinase CLK4 (Homo sapiens, UniProt Q9HAZ1); type: functional
# Chain of Beta-2 adrenergic receptor (P07550 whole entry): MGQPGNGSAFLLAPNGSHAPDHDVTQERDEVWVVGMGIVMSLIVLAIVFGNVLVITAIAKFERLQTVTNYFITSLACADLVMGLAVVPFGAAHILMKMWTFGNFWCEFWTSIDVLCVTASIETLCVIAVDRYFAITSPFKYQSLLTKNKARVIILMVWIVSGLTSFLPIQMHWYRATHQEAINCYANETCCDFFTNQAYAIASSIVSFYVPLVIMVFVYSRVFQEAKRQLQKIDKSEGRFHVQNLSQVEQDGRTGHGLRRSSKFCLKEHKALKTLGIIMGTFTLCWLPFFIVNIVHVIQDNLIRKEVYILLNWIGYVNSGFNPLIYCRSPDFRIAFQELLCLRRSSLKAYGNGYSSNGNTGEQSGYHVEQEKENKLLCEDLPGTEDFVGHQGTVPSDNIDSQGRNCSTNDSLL
# Chain of Cyclin-dependent kinase 19 (Q9BWU1 whole entry): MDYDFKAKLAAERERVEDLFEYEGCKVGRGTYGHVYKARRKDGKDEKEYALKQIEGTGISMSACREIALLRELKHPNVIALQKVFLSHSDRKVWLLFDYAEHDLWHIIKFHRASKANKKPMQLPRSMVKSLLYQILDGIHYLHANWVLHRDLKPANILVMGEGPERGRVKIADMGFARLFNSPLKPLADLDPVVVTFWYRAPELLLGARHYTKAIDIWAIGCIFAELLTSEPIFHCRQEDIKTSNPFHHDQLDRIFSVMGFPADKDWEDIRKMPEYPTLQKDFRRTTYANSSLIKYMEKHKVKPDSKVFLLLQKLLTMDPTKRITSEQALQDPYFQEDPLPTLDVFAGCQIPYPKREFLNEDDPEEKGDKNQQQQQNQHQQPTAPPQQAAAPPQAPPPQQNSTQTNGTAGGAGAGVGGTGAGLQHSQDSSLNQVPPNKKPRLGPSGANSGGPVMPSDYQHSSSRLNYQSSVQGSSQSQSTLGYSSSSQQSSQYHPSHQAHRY
# Chain of Aurora kinase B (Q96GD4 whole entry): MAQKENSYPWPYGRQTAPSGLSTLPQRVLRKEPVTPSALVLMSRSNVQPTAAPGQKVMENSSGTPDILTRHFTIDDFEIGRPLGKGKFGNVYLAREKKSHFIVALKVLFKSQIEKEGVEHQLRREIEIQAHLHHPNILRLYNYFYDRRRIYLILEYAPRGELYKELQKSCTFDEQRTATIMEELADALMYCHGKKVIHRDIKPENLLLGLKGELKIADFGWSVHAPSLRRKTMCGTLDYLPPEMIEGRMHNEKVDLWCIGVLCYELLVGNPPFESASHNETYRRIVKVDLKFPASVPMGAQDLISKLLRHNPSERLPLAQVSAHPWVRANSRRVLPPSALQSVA
# Chain of Cytochrome P450 3A4 (P08684 whole entry): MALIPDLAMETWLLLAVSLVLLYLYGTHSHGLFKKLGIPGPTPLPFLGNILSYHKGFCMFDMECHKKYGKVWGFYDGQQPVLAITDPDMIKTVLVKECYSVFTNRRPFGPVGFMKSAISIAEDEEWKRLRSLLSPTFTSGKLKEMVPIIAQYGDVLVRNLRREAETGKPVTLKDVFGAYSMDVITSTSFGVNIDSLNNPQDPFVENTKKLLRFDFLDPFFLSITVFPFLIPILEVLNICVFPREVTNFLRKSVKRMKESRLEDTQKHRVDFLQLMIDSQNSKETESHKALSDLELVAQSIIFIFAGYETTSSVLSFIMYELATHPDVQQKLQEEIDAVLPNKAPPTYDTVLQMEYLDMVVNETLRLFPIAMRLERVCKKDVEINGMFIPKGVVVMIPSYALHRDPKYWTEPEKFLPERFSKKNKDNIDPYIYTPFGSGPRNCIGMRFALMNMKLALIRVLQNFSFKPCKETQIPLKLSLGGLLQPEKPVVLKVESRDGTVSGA
# Chain of Cyclin-dependent kinase 8 (P49336 whole entry): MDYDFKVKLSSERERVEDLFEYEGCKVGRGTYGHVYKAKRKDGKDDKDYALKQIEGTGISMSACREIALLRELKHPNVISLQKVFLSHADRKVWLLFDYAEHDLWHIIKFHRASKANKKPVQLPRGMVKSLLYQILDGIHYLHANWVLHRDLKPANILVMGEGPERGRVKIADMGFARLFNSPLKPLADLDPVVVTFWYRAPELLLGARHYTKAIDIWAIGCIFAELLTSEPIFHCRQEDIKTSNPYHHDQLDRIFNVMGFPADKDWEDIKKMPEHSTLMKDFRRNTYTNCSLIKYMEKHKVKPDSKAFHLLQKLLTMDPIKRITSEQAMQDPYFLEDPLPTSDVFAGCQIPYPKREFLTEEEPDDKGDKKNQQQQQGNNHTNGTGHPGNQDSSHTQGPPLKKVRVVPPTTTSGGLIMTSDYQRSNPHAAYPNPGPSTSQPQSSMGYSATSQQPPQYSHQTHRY
# Chain of Genome polyprotein (P29990 2492-3391 limits assumed): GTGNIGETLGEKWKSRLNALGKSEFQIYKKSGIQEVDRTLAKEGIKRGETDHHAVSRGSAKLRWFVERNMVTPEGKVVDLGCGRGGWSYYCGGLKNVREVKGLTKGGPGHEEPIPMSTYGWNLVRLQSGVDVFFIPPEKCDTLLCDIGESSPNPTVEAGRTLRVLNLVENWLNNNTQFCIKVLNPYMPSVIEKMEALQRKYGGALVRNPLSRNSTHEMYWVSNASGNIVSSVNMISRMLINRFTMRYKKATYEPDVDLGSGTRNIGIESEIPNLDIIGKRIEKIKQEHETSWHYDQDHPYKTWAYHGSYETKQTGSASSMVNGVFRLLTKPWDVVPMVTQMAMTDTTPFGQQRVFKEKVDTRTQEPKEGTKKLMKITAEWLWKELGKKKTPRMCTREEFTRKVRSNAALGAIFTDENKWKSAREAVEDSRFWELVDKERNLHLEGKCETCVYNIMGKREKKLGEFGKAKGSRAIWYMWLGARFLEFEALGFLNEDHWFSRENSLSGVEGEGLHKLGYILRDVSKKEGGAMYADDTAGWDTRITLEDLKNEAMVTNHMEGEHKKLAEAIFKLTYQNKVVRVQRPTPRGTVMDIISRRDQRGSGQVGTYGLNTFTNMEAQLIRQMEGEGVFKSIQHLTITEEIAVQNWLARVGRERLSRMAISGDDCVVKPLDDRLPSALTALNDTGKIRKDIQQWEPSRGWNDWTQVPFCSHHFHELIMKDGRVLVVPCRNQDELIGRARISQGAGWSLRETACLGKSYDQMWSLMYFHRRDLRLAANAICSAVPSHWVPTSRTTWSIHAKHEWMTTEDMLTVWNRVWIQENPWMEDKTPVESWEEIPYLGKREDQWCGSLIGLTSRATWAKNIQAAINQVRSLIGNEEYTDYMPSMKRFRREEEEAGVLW
# Chain of CAAX prenyl protease 2 (Saccharomyces cerevisiae S288c, UniProt Q03530) (Q03530 whole entry): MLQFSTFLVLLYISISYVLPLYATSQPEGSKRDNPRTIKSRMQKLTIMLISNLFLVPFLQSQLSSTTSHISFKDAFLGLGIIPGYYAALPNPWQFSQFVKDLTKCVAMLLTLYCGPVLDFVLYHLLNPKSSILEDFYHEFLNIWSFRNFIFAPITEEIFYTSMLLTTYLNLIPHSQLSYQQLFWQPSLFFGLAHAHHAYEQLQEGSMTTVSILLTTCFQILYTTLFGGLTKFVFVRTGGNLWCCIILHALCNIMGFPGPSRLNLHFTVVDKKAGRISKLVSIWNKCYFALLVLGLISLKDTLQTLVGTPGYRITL
# Chain of Trypsin (P00761 whole entry): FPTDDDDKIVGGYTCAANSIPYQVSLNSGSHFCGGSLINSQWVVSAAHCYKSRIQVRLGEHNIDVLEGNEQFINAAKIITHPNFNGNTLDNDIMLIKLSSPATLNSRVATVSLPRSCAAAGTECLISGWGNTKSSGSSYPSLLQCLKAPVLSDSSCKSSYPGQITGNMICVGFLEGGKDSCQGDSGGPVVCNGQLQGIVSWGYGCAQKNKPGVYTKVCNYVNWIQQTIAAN
# Chain of Cytochrome P450 2C9 (P11712 whole entry): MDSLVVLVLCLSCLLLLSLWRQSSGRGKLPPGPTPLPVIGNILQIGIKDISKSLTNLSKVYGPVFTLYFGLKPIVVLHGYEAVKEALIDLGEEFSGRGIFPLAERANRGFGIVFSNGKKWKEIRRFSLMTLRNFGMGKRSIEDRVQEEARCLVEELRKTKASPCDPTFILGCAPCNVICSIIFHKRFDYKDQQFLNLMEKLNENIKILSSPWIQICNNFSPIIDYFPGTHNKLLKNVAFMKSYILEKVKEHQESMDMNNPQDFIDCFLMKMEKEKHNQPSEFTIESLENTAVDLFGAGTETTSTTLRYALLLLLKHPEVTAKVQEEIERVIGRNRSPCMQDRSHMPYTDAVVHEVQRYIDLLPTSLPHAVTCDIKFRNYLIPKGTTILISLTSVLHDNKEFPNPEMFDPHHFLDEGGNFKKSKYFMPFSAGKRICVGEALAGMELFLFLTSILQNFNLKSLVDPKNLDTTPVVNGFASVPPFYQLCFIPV
# Chain of Activin receptor type-1 (Q04771 whole entry): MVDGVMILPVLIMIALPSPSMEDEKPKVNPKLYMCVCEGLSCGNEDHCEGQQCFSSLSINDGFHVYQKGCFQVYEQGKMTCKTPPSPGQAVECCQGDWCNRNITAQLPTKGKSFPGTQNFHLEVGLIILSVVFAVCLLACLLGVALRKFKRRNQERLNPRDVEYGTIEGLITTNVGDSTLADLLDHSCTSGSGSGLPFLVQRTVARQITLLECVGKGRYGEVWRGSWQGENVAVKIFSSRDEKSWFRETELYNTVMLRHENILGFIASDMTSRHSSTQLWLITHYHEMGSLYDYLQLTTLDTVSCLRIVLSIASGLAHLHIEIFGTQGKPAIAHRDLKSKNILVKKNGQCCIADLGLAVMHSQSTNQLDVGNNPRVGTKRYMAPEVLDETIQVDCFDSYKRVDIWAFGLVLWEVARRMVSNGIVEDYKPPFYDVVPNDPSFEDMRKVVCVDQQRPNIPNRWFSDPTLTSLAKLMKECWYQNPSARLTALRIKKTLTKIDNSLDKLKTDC
structure (smiles),measurement,setting,value
COC(=O)c1cc(C(=O)Nc2cc(C)ccn2)cc([N+](=O)[O-])c1,AC50,Escherichia coli [1],63.9 µM (active)
same,AC50,Escherichia coli [2],132 µM (active)
COc1ccc(C[C@H]2c3cc(O)c(OC)cc3CC[N+]2(C)[O-])cc1O (some centres not stated),AC50,CAAX prenyl protease 2 [3],7.82 µM (active)
same,AC50,Trypsin,13.9 µM (active)
same,AC50,CAAX prenyl protease 2 [4],2.8 µM (active)
Cc1occc1C(=O)NCc1cccc(CNC(=O)c2ccoc2C)c1,AC50,Escherichia coli [1],21.6 µM (active)
same,IC50,Estrogen receptor,19.7 µM (active)
Cn1cccc1/C=C1\C(=O)NC(=O)N(Cc2ccccc2)C1=O,CC50,Vero,> 40 µM (active)
same,IC50,Genome polyprotein,23.4 µM (active)
same,CC50,[5],> 40 µM (active)
same,EC50,HEK293 [6],> 59.6 µM (inactive)
same,EC50,HEK293 [7],> 59.6 µM (inactive)
COc1ccc(-c2cc(C(F)(F)F)nc(S(=O)(=O)CCC(=O)N3CCOCC3)n2)cc1,EC50,[8],25.3 µM (inactive)
Cc1ccc(NC(=O)c2ccc(N3CCOCC3)c([N+](=O)[O-])c2)cc1S(=O)(=O)N1CCOCC1,EC50,[8],10.1 µM (inactive)
CCN(CC)S(=O)(=O)N1CCC(C(=O)NC2CCCC2)CC1,AC50,Cytochrome P450 2C19,39.8 µM (inconclusive)
same,AC50,Cytochrome P450 3A4,15.8 µM (inconclusive)
same,AC50,Cytochrome P450 2C9,3.16 µM (inconclusive)
same,AC50,Escherichia coli [2],26.2 µM (active)
O=C(O)c1ccccc1Nc1ccnc(N2CCCCC2)n1,Ki,[9],3.98 µM (active)
same,Ki,[10],> 100 µM (inactive)
Cc1n[nH]c2c1c(=O)n(C)c1ccccc21,Ki,[11],0.631 µM (active)
same,Ki,Aurora kinase A,1 µM (active)
same,Ki,Aurora kinase B,0.0501 µM (active)
Cc1cccc(NC(=O)Nc2ccc(-c3nn(C)c4ncnc(N)c34)cc2)c1,Ki,[12],0.501 µM (active)
same,Ki,Aurora kinase A,0.0398 µM (active)
same,Ki,Aurora kinase B,0.00158 µM (active)
Cc1nn(C)c(=O)c(N)c1-c1ccccc1,Ki,Activin receptor type-1,50.1 µM (active)
same,Ki,[13],31.6 µM (active)
CC(=O)Nc1ccc(Nc2c3ccccc3nc3ccccc23)cc1,EC50,[14],1.32 µM (active)
same,EC50,[15],0.556 µM (active)
same,EC50,[16],> 150 µM (inactive)
same,EC50,[17],> 91.1 µM (inactive)
same,EC50,[18],> 91.1 µM (inactive)
same,EC50,[19],0.536 µM (active)
same,AC50,A-375,13.8 µM (active)
same,AC50,[20],2.21 µM (active)
same,AC50,INS1,3.71 µM (active)
same,AC50,[21],4.9 µM (active)
same,EC50,[22],> 180 µM (inactive)
same,EC50,[23],10.5 µM (active)
O=c1cc(Cc2nc3ccccc3[nH]2)[nH]n1-c1ccccc1,Ki,[10],> 100 µM (inactive)
same,Ki,[24],1.26 µM (active)

# — ChEMBL document CHEMBL1201862, “PubChem BioAssay data set” (2004)
